{
  "source": "paper PMC5354938",
  "about": "“Spleen cells from young but not old immunized mice eradicate large established cancers” (Clinical cancer research : an official journal of the …, 2012)",
  "key": {"H2-K^b [1]": {"target": "T1, H2-K^b (Mus musculus, UniProt P01901)", "T1 construct": "made in house", "T1 sequence (P01901 22-369)": "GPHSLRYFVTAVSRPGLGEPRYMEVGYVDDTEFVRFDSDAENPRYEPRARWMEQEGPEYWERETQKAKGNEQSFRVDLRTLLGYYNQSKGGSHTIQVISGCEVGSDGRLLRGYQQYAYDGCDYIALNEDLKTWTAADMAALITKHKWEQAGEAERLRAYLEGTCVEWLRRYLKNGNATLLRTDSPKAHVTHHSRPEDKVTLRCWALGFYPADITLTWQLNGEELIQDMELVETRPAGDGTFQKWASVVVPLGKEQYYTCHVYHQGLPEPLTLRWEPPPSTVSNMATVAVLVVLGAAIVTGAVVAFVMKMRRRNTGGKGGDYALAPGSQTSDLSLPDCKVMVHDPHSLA", "T1 sequence (P01887 21-119 partner)": "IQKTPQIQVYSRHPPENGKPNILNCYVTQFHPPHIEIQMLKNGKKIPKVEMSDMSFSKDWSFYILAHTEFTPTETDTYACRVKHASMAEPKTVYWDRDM", "assay": "MHC peptide binding assay, purified H2-K^b", "method": "MHC purification, and quantitative assays to measure the binding affinity of peptides to purified H2-K^b, H2-D^b, and HLA-A*0201 molecules were performed as previously described ([49], [50])."}, "H2-K^b [2]": {"target": "T1, H2-K^b", "conditions": "MHC K^b; geometric mean of 5 or more experiments; Published in ref [19]; read-out: Affinity of peptide for MHC (IC50); cited from earlier work"}, "H2-D^b": {"target": "H2-D^b (Mus musculus, UniProt P01899)", "sequence (P01899 whole entry, looked up)": "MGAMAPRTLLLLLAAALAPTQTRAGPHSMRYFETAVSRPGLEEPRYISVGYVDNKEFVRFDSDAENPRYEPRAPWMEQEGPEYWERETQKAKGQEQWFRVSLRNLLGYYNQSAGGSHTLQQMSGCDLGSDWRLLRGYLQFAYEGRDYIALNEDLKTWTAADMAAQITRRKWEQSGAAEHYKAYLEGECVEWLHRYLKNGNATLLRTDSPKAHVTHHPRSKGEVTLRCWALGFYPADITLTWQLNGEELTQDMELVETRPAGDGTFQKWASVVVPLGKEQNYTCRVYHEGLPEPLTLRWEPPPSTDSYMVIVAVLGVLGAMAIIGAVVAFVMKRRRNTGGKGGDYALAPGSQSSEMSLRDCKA", "conditions": "MHC D^b; geometric mean of 5 or more experiments; Published in ref [19]; read-out: Affinity of peptide for MHC (IC50); cited from earlier work"}, "[3]": {"conditions": "Affinity of peptide for MHC (IC50), MHC K^b, purified H2-K^b, geometric mean of 5 or more experiments"}},
  "note": "pIC50: −log10 of the molar value. Where two headings read alike, the source gives them in different places. Ends that are not written are not given here.",
  "data": [
    {"sequence": "SNFVFAGI [mp68 (547-554, 5F)]", "values": [
      {"measurement": "pIC50", "setting": "H2-K^b [1]; [3]", "value": 9.32},
      {"measurement": "pIC50", "setting": "H2-K^b [1]; binding to MHC Class I molecules with very high affinity (bound), discussion statement, very high affinity", "value": "> 9.00"}
    ]},
    {"sequence": "SNFVSAGI [p68 (547-554)]", "values": [
      {"measurement": "pIC50", "setting": "H2-K^b [1]; [3]", "value": 7.66}
    ]},
    {"sequence": "YTLIYRQL [A6L (265-272)]", "values": [
      {"measurement": "pIC50", "setting": "H2-K^b [2]", "value": 8.22}
    ]},
    {"sequence": "IGMFNLTFI [A23R (297-305)]", "values": [
      {"measurement": "pIC50", "setting": "H2-D^b", "value": 9.47}
    ]}
  ]
}
